Experimental findings from patent publication US11731985B2, “Compositions and methods for treating cancer” (Hb Therapeutics Inc., priority 2018, dated 2023) are described below.

Like-named read-outs stand apart in the source and are kept apart here. Where a SMILES comes first, the peptide text is derived from it. The star is where a group is joined. Cbz = O=C(OCc1ccccc1)*

Series [1] relates to colon cancer PDX (L1206F). As to the kind of experiment: Patient derived xenograft of colon cancer (L1206F). It is filed as in vivo, mice. An excerpt: (§1) The left two graphs show data for compounds CPD1 and the middle two graphs show data for CPD24 treatment of colon cancer PDX (L1206F). […] The right two graphs show data for compound CPD1 and CPD24 treatment of lung cancer PDX (L1102F). […] The significance of **P<0.01, and ***P<0.001 was statistically analyzed.
(§2) For the therapeutic effects of the compounds, we examined the effects of CPD1 and CPD24 on various types of cancer xenografts in mice. […] NOD/SCID mice bearing intracranial brain xenografts of glioblastoma LN229 cell line were treated with CPD1.
(In general: A xenograft is tissue or cells of one species grown in another, often human tumour cells in immunodeficient mice.)

The next series concerns lung A549 xenografts. As to the kind of experiment: Subcutaneous xenografts of lung A549 cancer cell line in nude mice. In kind it is in vivo. How it is done: as §2
For series [2], the target named is T1, SUMO1 (Homo sapiens, UniProt P63165). As to the kind of experiment: Western and dot blot of normal lung epithelial Nuli-1 and lung cancer cells. On the set-up: CPD24 treatment reduces SUMO1 conjugation and total levels of SUMO1 protein in the cancer but not normal cells; endogenous in cells. It is filed as cell-based.
A short description of series [3]: Tolerability across all xenograft mice. In kind it is in vivo. Particulars: over the treatment period. Here is the method: as §2
Another series concerns colon HCT116 xenografts. As to the kind of experiment: Subcutaneous xenografts of colon HCT116 cancer cell line in nude mice. In kind it is in vivo. Here is the method: as §2
For a further series, the system named is lung cancer PDX (L1102F). Nature of the series: Patient derived xenograft of lung cancer (L1102F). In kind it is in vivo, mice.
From the text: as §1, §2

Series [4] has as its system SUMO1. As to the kind of experiment: Ubiquitination of Flag-SUMO1 (immunoprecipitation, western blot) in co-transfected LN229 cells. It is filed as cell-based, human. Particulars: LN229 cells co-transfected with Flag-SUMO1-GV and HA-UB-WT. An excerpt: (§3) The non-conjugated Flag-tagged SUMO1 (Flag-SUMO1-GV) and the HA-tagged wild type (WT) UB (HA-UB-WT) were co-transfected in LN229 cells.

The next series concerns LN229 cells. As to the kind of experiment: Cell viability assay, LN229 cells. In kind it is cell-based, human. The note with it: for IC50: read-out: Inhibition of Cancer Cell Growth (IC50). How it is done:
Each of the compounds was used to treat the cancer LN229 cells and examined first by western and dot blot assays for the degradation of SUMO1 protein and then by cell viability assay for the IC50 values of anticancer activity.
(§4) LN229 cell were treated with a series of dilutions of CPD1 and examined by cell viability assay for cell growth inhibition (FIG. 2B). […] Therefore, CPD1 acts as the degrader of SUMO1 protein and inhibitor of SUMO1 conjugation in cancer cells.

The target in series [5] is T1, SUMO1. Nature of the series: Western and dot blot assays for SUMO1 conjugation and SUMO1 protein levels in LN229 cells. In kind it is cell-based. Also noted: analyzed by western blotting for detection of the conjugate and free form of SUMO1 protein and dot blotting for total levels of SUMO1 protein; endogenous in cells; host or cells: LN229 glioblastoma cells. Particulars: LN229 cells treated with CPD1, followed by MG132. Here is the method:
FIG. 2A illustrates how the glioblastoma LN229 cell line was treated with each of compounds of the National Cancer Institute (NCI) Diversity Set IV library and analyzed by western blot assays using SUMO1, SUMO2/3, UB and β-actin antibodies.
as §4, §3

The mark [6] stands for this setting: Homo sapiens, LN-229, LN229 cells.

T1 sequence (P63165 1-97 limits assumed): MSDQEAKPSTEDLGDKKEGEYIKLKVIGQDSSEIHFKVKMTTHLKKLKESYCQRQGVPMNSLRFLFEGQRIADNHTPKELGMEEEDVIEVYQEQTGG

A word on the IC50: it is the concentration needed to halve the response being measured. Turning to `N#Cc1ccc2nc(NC(=O)Nc3cccc(Cl)c3)sc2c1` [Compound 24, 1-(3-chlorophenyl)-3-(6-cyano-1,3-benzothiazol-2-yl)urea], in series [1], the “body weight of mice” value is listed as “had no effects on the body weight of mice” and the “tumor growth (tumor sizes)” value was “significantly inhibits the tumor growth of the colon cancer PDXs”. In the series with lung A549 xenografts, the xenograft progression result is on record as “significantly suppressed xenograft progression”. In addition, the “SUMO1 conjugation and total SUMO1 protein in normal versus cancer cells” value on SUMO1 [2] is “reduces SUMO1 conjugation and total levels of SUMO1 protein only in cancer cells”. Also, the “tolerability, clinical signs” value in [3] was “well tolerated over the treatment period with no clinical signs of lethargy, ataxia, paralysis, seizure or weight loss”. The xenograft progression entry with colon HCT116 xenografts is “significantly suppressed xenograft progression”. Further, the mouse body weight result in the series on lung cancer PDX (L1102F) is listed as “no effects of the treatment on mouse body weight”. The “PDX growth inhibition, potency compared with CPD1” value with lung cancer PDX (L1102F) (CPD24 25 and 50 mg/kg versus CPD1 100 mg/kg) was “more potent”. In addition, the PDX growth result in the series on lung cancer PDX (L1102F) (CPD24 25 and 50 mg/kg, CPD1 100 mg/kg) is “markedly inhibits the PDX growth”. The “poly-ubiquitination of SUMO1 protein” value with SUMO1 [4] is listed as “results in the poly-ubiquitination of SUMO1 protein”. The IC50 in the series with LN229 cells (setting [6]) was at most 5 µM. Also, the “inhibition of the cell growth, compared with the other representative compounds” value with LN229 cells (LN229 cells, FIG. 3A) is “much more potent in inhibition of the cell growth”.
Turning to `N#Cc1cc(NC(=O)Nc2nc3ccc(Cl)cc3s2)ccc1Cl` [Compound 85], the half-inhibitory concentration (IC50) in the series on LN229 cells (setting [6]) was at most 5 µM.
Consider `N#Cc1ccc(Cl)c(NC(=O)Nc2nc3ccc(Cl)cc3s2)c1` [Compound 86], for which, in the series on LN229 cells (setting [6]), the IC50 was at most 5 µM.
In the case of `N#Cc1cc(NC(=O)Nc2nc3ccc(Cl)cc3s2)ccc1Br` [Compound 87], in the series with LN229 cells (setting [6]), the concentration for half-maximal inhibition (IC50) was at most 5 µM.
The same measure, in the same setting: the value for `Cc1ccc(NC(=O)Nc2nc3ccc(Cl)cc3s2)cc1C#N` [Compound 88] was at most 20 µM.
For the compound `N#Cc1cccc(NC(=O)Nc2nc3c(s2)CC(C(N)=O)CC3)c1` (stereo not shown) [Compound 89], the 50% inhibitory concentration (IC50) in the series with LN229 cells (setting [6]) is over 20 µM.
`NC(=O)C1CCc2nc(NC(=O)Nc3cccc(Cl)c3)sc2C1` (stereo not shown) [Compound 90, 2-[(3-chlorophenyl)carbamoylamino]-4,5,6,7-tetrahydro-1,3-benzothiazole-6-carboxamide]: the IC50 in the series on LN229 cells (setting [6]) was over 20 µM.
As for `N#Cc1ccc(NC(=O)Nc2nc3ccc(Cl)cc3s2)cc1C#N` [Compound 91], the IC50 with LN229 cells (setting [6]) was at most 5 µM.
Still for that read-out and setting: the value for `N#Cc1cc(NC(=O)Nc2nc3ccc(Cl)cc3s2)ccc1F` [Compound 92] was at most 5 µM; that for `N#Cc1cc(Cl)cc(NC(=O)Nc2nc3ccc(Cl)cc3s2)c1` [Compound 93] was at most 5 µM; that for `N#Cc1ccc(NC(=O)Nc2nc3ccc(Cl)cc3s2)cc1` [Compound 94] was at most 5 µM.
Same read-out and setting: as for `N#Cc1cccc(NC(=O)Nc2nc3ccc(Cl)cc3s2)c1F` [Compound 95], the figure is over 20 µM; as for `N#Cc1ccc(F)c(NC(=O)Nc2nc3ccc(Cl)cc3s2)c1` [Compound 96], at most 5 µM.
Same read-out and setting: as for `N#CC1CCc2nc(NC(=O)Nc3cccc(Cl)c3)sc2C1` (stereo not shown) [Compound 97], the figure is at most 20 µM.
Regarding `N#Cc1ccc2nc(NC(=O)Nc3cccc(Oc4ccccc4)c3)sc2c1` [Compound 98], in the series with LN229 cells (setting [6]), the half-inhibitory concentration (IC50) is at most 5 µM.
`N#Cc1ccc2nc(NC(=O)Nc3ccnc(Cl)c3)sc2c1` [Compound 99]: the IC50 in the series with LN229 cells (setting [6]) is at most 5 µM.
Still for that read-out and setting: as for `N#Cc1cccc(NC(=O)Nc2nc3ccc(C(F)(F)F)cc3s2)c1` [Compound 100], the figure is at most 5 µM; as for `N#Cc1cccc(NC(=O)Nc2nc3c(Cl)cc(Cl)cc3s2)c1` [Compound 101], at most 5 µM.
`N#Cc1cccc(NC(=O)Nc2nc3c(F)cc(F)cc3s2)c1` [Compound 102]: the 50% inhibitory concentration (IC50) in the series on LN229 cells (setting [6]) is at most 5 µM.
Still for that read-out and setting: as for `N#Cc1cccc(NC(=O)Nc2nc3ccc(OC(F)(F)F)cc3s2)c1` [Compound 103], the figure is at most 5 µM; as for `N#Cc1ccc(NC(=O)Nc2nc3ccc(Cl)cc3s2)c(Cl)c1` [Compound 104], at most 5 µM.
Still for that read-out and setting: as for `N#Cc1cc(F)cc(NC(=O)Nc2nc3ccc(Cl)cc3s2)c1` [Compound 105], the figure is at most 5 µM; as for `N#Cc1cc(Br)cc(NC(=O)Nc2nc3ccc(Cl)cc3s2)c1` [Compound 106], at most 20 µM.
On to `N#Cc1ccc(NC(=O)Nc2nc3ccc(Cl)cc3s2)cc1F` [Compound 107], for which, in the series on LN229 cells (setting [6]), the IC50 is at most 5 µM.
`N#Cc1ccc2nc(NC(=O)Nc3ccc4[nH]c(=O)[nH]c4c3)sc2c1` [Compound 108]: in the series with LN229 cells (setting [6]), the IC50 was over 20 µM.
On the same count and under the same terms, as for `N#Cc1ccc2nc(NC(=O)Nc3cccc4ccccc34)sc2c1` [Compound 109], the figure is over 20 µM; as for `N#Cc1ccc2nc(NC(=O)Nc3ccc4ccccc4c3)sc2c1` [Compound 110], at most 20 µM.
Same read-out and setting: the value for `Cn1ncc2ccc(NC(=O)Nc3nc4ccc(C#N)cc4s3)cc21` [Compound 111] was over 20 µM.
Still for that read-out and setting: the value for `N#Cc1ccc2nc(NC(=O)Nc3cccc(C(=O)OCCOCCN)c3)sc2c1` [Compound 112] was over 20 µM; that for `N#Cc1cc(F)cc(NC(=O)Nc2nc3ccc(C(F)(F)F)cc3s2)c1` [Compound 113, 1-(3-cyano-5-fluorophenyl)-3-[6-(trifluoromethyl)-1,3-benzothiazol-2-yl]urea] was at most 5 µM; that for `CS(=O)(=O)c1ccc2nc(NC(=O)Nc3cccc(C#N)c3)sc2c1` [Compound 114] was at most 20 µM.
In the case of `N#Cc1cc(Cl)cc(NC(=O)Nc2nc3ccc(C(F)(F)F)cc3s2)c1` [Compound 115], in the series on LN229 cells (setting [6]), the IC50 is at most 5 µM.
As for `N#Cc1ccc(NC(=O)Nc2nc3ccc(C(F)(F)F)cc3s2)c(Cl)c1` [Compound 116], the IC50 in the series on LN229 cells (setting [6]) is at most 5 µM.
Same read-out and setting: as for `N#Cc1ccc(NC(=O)Nc2nc3ccc(C(F)(F)F)cc3s2)cc1` [Compound 117], the figure is at most 5 µM; as for `N#Cc1ccc(NC(=O)Nc2nc3ccc(Cl)cc3s2)cc1Cl` [Compound 118], at most 5 µM; as for `N#Cc1ccc(NC(=O)Nc2nc3ccc(Cl)cc3s2)cc1C(F)(F)F` [Compound 119], at most 5 µM.
In the case of `CC(C)(C)OC(=O)NCCOCCOc1cccc(NC(=O)Nc2nc3ccc(C#N)cc3s2)c1` [Compound 120], in the series with LN229 cells (LN229 cells), the IC50 is at most 5 µM.
Same read-out and setting: the value for `N#Cc1ccc2nc(NC(=O)Nc3cccc(OCCOCCN)c3)sc2c1` [Compound 121] was over 20 µM.
As for `N#Cc1c(F)ccc(NC(=O)Nc2nc3ccc(Cl)cc3s2)c1F` [Compound 122], the 50% inhibitory concentration (IC50) in the series on LN229 cells (setting [6]) was at most 5 µM.
Turning to `N#Cc1ccc(NC(=O)Nc2nc3ccc(Cl)cc3s2)c(F)c1` [Compound 123], in the series on LN229 cells (setting [6]), the half-maximal inhibitory concentration (IC50) is at most 20 µM.
Turning to `CC(C)C[C@@H](C=O)NC(=O)[C@H](CC(C)C)NC(=O)[C@H](CC(C)C)NC(=O)OCc1ccccc1` [MG132, reference compound] (Cbz-Leu-Leu-Leu-aldehyde), at SUMO1 [5], the “effect of MG132 on CPD1-induced degradation of SUMO1 protein” value is recorded as “prevents CPD1-induced degradation of SUMO1 protein”.
